Data taken from patent US20230233569A1 (Revolution Medicines, Inc., priority 2020, published 2023).
Like-named read-outs stand apart in the source and are kept apart here.

Columns and labels:
Capan-1 (K-Ras G12V) = assay: CellTiter-Glo cell viability assay, 5-day treatment; format: cell-based; settings: Homo sapiens, CAPAN-1, 120 h, 5-day treatment; read-out: Capan-1 Cell Viability assay data (K-Ras G12V, IC50)
Procedure, shortened: (§1)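 Luminescence read-out after 5 days of compound exposure, with plates first brought to room temperature for roughly 30 minutes. Values are percent of averaged DMSO wells, fitted by four-parameter logistic regression.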

NCI-H358 (K-Ras G12C) = assay: as above; format: cell-based; settings: Homo sapiens, NCI-H358, 120 h, 5-day treatment; read-out: H358 Cell Viability assay data (K-Ras G12C, IC50)
Procedure, shortened: as §1

KRAS G12C = KRAS G12C (Homo sapiens, UniProt P01116+P62937, G12C); assay: Disruption of BRAF RBD interaction with Ras (FRET / MOA assay, with Cyclophilin A); format: biochemical
Sequence of KRAS G12C (P01116 1-169 isoform P01116-2 G12C): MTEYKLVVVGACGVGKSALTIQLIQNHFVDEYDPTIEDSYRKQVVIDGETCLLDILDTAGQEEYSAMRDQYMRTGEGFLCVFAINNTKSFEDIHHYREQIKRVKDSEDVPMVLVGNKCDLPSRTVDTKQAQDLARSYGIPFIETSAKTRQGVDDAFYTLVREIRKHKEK
Sequence of KRAS G12C (P62937 whole entry): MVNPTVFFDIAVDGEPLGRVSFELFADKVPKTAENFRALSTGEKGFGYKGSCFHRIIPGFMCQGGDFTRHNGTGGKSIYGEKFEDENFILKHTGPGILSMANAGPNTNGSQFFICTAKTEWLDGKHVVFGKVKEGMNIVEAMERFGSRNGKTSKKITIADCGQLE
Procedure, shortened: (§2)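 Measured via TR-FRET after 3 h at 25 °C with compound (30 μM top, threefold serial steps, ten concentrations) plus K-Ras, Cyclophilin A and BRAF RBD, followed by 1.5 h with anti-His europium (10 nM) and anti-GST allophycocyanin (50 nM). Signal loss versus DMSO gave IC50.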

KRAS G12D = KRAS G12D (Homo sapiens, UniProt P01116+P62937, G12D); assay: as above; format: biochemical
Sequence of KRAS G12D (P01116 1-169 isoform P01116-2 G12D limits assumed): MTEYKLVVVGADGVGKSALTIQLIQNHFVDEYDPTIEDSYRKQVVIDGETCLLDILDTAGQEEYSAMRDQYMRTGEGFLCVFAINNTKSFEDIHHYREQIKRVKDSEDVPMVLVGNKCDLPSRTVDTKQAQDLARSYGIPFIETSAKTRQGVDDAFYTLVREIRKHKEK
Sequence of KRAS G12D (P62937 whole entry): as the sequence (P62937 whole entry) above
Procedure, shortened: as §2

KRAS G12S = KRAS G12S (Homo sapiens, UniProt P01116+P62937, G12S); assay: as above; format: biochemical
Sequence of KRAS G12S (P01116 1-169 isoform P01116-2 G12S limits assumed): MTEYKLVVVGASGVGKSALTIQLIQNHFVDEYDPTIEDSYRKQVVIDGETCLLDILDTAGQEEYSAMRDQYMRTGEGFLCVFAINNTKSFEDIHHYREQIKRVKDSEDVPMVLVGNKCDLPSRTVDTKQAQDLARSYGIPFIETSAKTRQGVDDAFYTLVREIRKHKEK
Sequence of KRAS G12S (P62937 whole entry): as the sequence (P62937 whole entry) above
Procedure, shortened: as §2

KRAS G12V = KRAS G12V (Homo sapiens, UniProt P01116+P62937, G12V); assay: as above; format: biochemical
Sequence of KRAS G12V (P01116 1-169 isoform P01116-2 G12V limits assumed): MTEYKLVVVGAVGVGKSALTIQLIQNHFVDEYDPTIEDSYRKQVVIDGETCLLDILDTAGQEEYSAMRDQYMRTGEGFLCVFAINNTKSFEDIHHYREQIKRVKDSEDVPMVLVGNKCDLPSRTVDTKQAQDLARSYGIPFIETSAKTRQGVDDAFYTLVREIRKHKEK
Sequence of KRAS G12V (P62937 whole entry): as the sequence (P62937 whole entry) above
Procedure, shortened: as §2

KRAS G13C = KRAS G13C (Homo sapiens, UniProt P01116+P62937, G13C); assay: as above; format: biochemical
Sequence of KRAS G13C (P01116 1-169 isoform P01116-2 G13C): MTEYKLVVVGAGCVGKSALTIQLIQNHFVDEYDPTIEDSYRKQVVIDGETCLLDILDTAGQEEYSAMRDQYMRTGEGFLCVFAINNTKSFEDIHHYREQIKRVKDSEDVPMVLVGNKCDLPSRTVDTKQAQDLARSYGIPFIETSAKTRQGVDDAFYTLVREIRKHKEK
Sequence of KRAS G13C (P62937 whole entry): as the sequence (P62937 whole entry) above
Procedure, shortened: as §2

KRAS G13D = KRAS G13D (Homo sapiens, UniProt P01116+P62937, G13D); assay: as above; format: biochemical
Sequence of KRAS G13D (P01116 1-169 isoform P01116-2 G13D limits assumed): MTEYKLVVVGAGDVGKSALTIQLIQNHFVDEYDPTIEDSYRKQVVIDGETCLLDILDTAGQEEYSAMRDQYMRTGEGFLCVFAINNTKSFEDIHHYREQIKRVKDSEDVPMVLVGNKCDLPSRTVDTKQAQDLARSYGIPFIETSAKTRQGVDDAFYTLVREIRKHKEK
Sequence of KRAS G13D (P62937 whole entry): as the sequence (P62937 whole entry) above
Procedure, shortened: as §2

KRAS WT = KRAS WT (Homo sapiens, UniProt P01116+P62937); assay: as above; format: biochemical
Sequence of KRAS WT (P01116 1-169 isoform P01116-2 limits assumed): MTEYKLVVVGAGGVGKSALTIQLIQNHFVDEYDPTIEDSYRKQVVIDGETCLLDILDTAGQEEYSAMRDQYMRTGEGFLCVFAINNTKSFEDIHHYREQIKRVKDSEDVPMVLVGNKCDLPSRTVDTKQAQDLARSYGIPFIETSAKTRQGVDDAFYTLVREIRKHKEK
Sequence of KRAS WT (P62937 whole entry): as the sequence (P62937 whole entry) above
Procedure, shortened: as §2

NRAS G12C = NRAS G12C (Homo sapiens, UniProt P01111+P62937, G12C); assay: as above; format: biochemical
Sequence of NRAS G12C (P01111 whole entry G12C): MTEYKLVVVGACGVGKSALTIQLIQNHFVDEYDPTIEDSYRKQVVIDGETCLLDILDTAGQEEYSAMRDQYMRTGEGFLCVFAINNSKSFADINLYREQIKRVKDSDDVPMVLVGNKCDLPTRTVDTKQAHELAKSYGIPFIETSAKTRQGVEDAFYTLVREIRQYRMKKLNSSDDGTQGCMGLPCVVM
Sequence of NRAS G12C (P62937 whole entry): as the sequence (P62937 whole entry) above

KRAS Q61H = KRAS Q61H (Homo sapiens, UniProt P01116+P62937, Q61H); assay: as above; format: biochemical; settings: KRAS Q61H; read-out: KRAS Q61H FRET data IC50
Sequence of KRAS Q61H (P01116 1-169 isoform P01116-2 Q61H limits assumed): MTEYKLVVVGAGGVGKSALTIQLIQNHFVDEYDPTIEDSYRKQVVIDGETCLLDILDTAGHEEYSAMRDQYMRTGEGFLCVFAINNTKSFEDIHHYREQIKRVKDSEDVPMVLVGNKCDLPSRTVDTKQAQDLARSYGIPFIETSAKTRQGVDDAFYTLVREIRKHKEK
Sequence of KRAS Q61H (P62937 whole entry): as the sequence (P62937 whole entry) above
Procedure, shortened: (§3)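 IC50 reflects compound-driven Ras:Cyclophilin A ternary complex displacing BRAF RBD, read as lowered TR-FRET ratio relative to DMSO after Eu anti-His (10 nM) and APC anti-GST (50 nM) detection for 1.5 h. Prior incubation 3 h, 25° C, with 12.5 nM GMPPNP-loaded Ras, 50 nM BRAF RBD, 25 μM Cyclophilin A; top compound 30 μM.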

NRAS Q61K = NRAS Q61K (Homo sapiens, UniProt P01111+P62937, Q61K); assay: as above; format: biochemical; settings: NRAS Q61K; read-out: NRAS Q61K FRET data IC50
Sequence of NRAS Q61K (P01111 whole entry Q61K): as the sequence (P01111 whole entry G12C) above, with C12G, Q61K counted along it
Sequence of NRAS Q61K (P62937 whole entry): as the sequence (P62937 whole entry) above
Procedure, shortened: as §3

NRAS Q61R = NRAS Q61R (Homo sapiens, UniProt P01111+P62937, Q61R); assay: as above; format: biochemical; settings: NRAS Q61R; read-out: NRAS Q61R FRET data IC50
Sequence of NRAS Q61R (P01111 whole entry Q61R): as the sequence (P01111 whole entry G12C) above, with C12G, Q61R counted along it
Sequence of NRAS Q61R (P62937 whole entry): as the sequence (P62937 whole entry) above
Procedure, shortened: as §3

NRAS WT = NRAS WT (Homo sapiens, UniProt P01111+P62937); assay: as above; format: biochemical; settings: NRAS WT; read-out: NRAS WT FRET data IC50
Sequence of NRAS WT (P01111 whole entry): as the sequence (P01111 whole entry G12C) above, with C12G counted along it
Sequence of NRAS WT (P62937 whole entry): as the sequence (P62937 whole entry) above
Procedure, shortened: as §3

[1] = read-out: KRAS G12C FRET data, IC50
[2] = read-out: KRAS G12D FRET data, IC50
[3] = read-out: KRAS G12S FRET data, IC50
[4] = KRAS G12V, read-out: KRAS G12V FRET data IC50
[5] = read-out: KRAS G13C FRET data, IC50
[6] = KRAS G13D, read-out: KRAS G13D FRET data IC50
[7] = KRAS WT, read-out: KRAS WT FRET data IC50
[8] = NRAS G12C, read-out: NRAS G12C FRET data IC50
[9] = KRAS G12V FRET data IC50, KRAS G12V
[10] = KRAS G13D FRET data IC50, KRAS G13D
[11] = KRAS WT FRET data IC50, KRAS WT
[12] = NRAS G12C FRET data IC50, NRAS G12C

Row | Compound | IC50 (Capan-1 (K-Ras G12V)) [nM] | IC50 (NCI-H358 (K-Ras G12C)) [nM] | IC50 (KRAS G12C; [1]) [nM] | IC50 (KRAS G12D; [2]) [nM] | IC50 (KRAS G12S; [3]) [nM] | IC50 (KRAS G12V; [4]) [nM] | IC50 (KRAS G13C; [5]) [nM] | IC50 (KRAS G13D; [6]) [nM] | IC50 (KRAS WT; [7]) [nM] | IC50 (NRAS G12C; [8]) [nM] | IC50 (KRAS Q61H) [nM] | IC50 (NRAS Q61K) [nM] | IC50 (NRAS Q61R) [nM] | IC50 (NRAS WT) [nM] | other results
1 | CCn1c(-c2cccnc2[C@H](C)OC)c2c3cc(ccc31)-c1csc(n1)C[C@H](NC(=O)[C@H](C(C)C)N(C)C(=O)N1C[C@H](N)[C@@H](F)C1)C(=O)N1CCC[C@H](N1)C(=O)OCC(C)(C)C2 (atropisomer, axis not shown) [Example A567] | 100 to 1000 | 10 to 100 | 10 to 100 | 100 to 1000 | 100 to 1000 | 100 to 1000 | 100 to 1000 | 100 to 1000 | 100 to 1000 | 10 to 100 | 10 to 100 | 10 to 100 | 100 to 1000 | 100 to 1000 | –
2 | CCn1c(-c2cccnc2[C@H](C)OC)c2c3cc(ccc31)-c1csc(n1)C[C@H](NC(=O)[C@H](C(C)C)N(C)C(=O)N1CCC(N(C)C)CC1)C(=O)N1CCC[C@H](N1)C(=O)OCC(C)(C)C2 (atropisomer, axis not shown) [Example A571] | 10 to 100 | 10 to 100 | – | – | – | – | – | – | – | – | 10 to 100 | 10 to 100 | 100 to 1000 | 10 to 100 | IC50 (KRAS G12C; KRAS G12C FRET data, IC50): 10 to 100 nM; IC50 (KRAS G12D; KRAS G12D FRET data, IC50): 100 to 1000 nM; IC50 (KRAS G12S; KRAS G12S FRET data, IC50): 100 to 1000 nM; IC50 (KRAS G12V; [9]): 100 to 1000 nM; IC50 (KRAS G13C; KRAS G13C FRET data, IC50): 100 to 1000 nM; IC50 (KRAS G13D; [10]): 100 to 1000 nM; IC50 (KRAS WT; [11]): 10 to 100 nM; IC50 (NRAS G12C; [12]): 10 to 100 nM
3 | CCn1c(-c2cccnc2[C@H](C)OC)c2c3cc(ccc31)-c1csc(n1)C[C@H](NC(=O)[C@H](C(C)C)N(C)C(=O)N1CCC[C@H](CN(C)C)C1)C(=O)N1CCC[C@H](N1)C(=O)OCC(C)(C)C2 (atropisomer, axis not shown) [Example A573] | 10 to 100 | < 10 | – | – | – | – | – | – | – | – | 10 to 100 | 10 to 100 | 100 to 1000 | 10 to 100 | IC50 (KRAS G12C; KRAS G12C FRET data, IC50): 10 to 100 nM; IC50 (KRAS G12D; KRAS G12D FRET data, IC50): 10 to 100 nM; IC50 (KRAS G12S; KRAS G12S FRET data, IC50): 10 to 100 nM; IC50 (KRAS G12V; [9]): 100 to 1000 nM; IC50 (KRAS G13C; KRAS G13C FRET data, IC50): 10 to 100 nM; IC50 (KRAS G13D; [10]): 10 to 100 nM; IC50 (KRAS WT; [11]): 10 to 100 nM; IC50 (NRAS G12C; [12]): 10 to 100 nM
4 | CCn1c(-c2cccnc2[C@H](C)OC)c2c3cc(ccc31)-c1csc(n1)C[C@H](NC(=O)[C@H](C(C)C)N(C)C(=O)N1CC(CN(C)C)(OC)C1)C(=O)N1CCC[C@H](N1)C(=O)OCC(C)(C)C2 (atropisomer, axis not shown) [Example A575] | 100 to 1000 | 100 to 1000 | 1000 to 10000 | 1000 to 10000 | 1000 to 10000 | 1000 to 10000 | 1000 to 10000 | 1000 to 10000 | 1000 to 10000 | 1000 to 10000 | 1000 to 10000 | 1000 to 10000 | 1000 to 10000 | 1000 to 10000 | –
5 | CCn1c(-c2cc(C3CCN(C)CC3)cnc2[C@H](C)OC)c2c3cc(ccc31)-c1cc(O)cc(c1)C[C@H](NC(=O)[C@H](C(C)C)N(C)C(=O)[C@@H]1OCC[C@@H]1c1ccccc1)C(=O)N1CCC[C@H](N1)C(=O)OCC(C)(C)C2 (atropisomer, axis not shown) [Example A577] | < 10 | < 10 | < 10 | 10 to 100 | < 10 | 10 to 100 | 10 to 100 | 10 to 100 | 10 to 100 | < 10 | < 10 | 10 to 100 | < 10 | < 10 | –
6 | CCn1c(-c2cccnc2[C@H](C)OC)c2c3cc(ccc31)-c1csc(n1)C[C@H](NC(=O)[C@H](CC1CC1)N(C)C(=O)N1CC(OC)C1)C(=O)N1CCC[C@H](N1)C(=O)OCC(C)(C)C2 (atropisomer, axis not shown) [Example A578] | 100 to 1000 | 10 to 100 | 10 to 100 | 100 to 1000 | 10 to 100 | 10 to 100 | 10 to 100 | 10 to 100 | 10 to 100 | < 10 | 10 to 100 | 10 to 100 | 10 to 100 | 10 to 100 | –
7 | CCn1c(-c2cccnc2[C@H](C)OC)c2c3cc(ccc31)-c1csc(n1)C[C@H](NC(=O)[C@H](C(C)C)N(C)C(=O)N1C[C@H](OC)[C@@H](N)C1)C(=O)N1CCC[C@H](N1)C(=O)OCC(C)(C)C2 (atropisomer, axis not shown) [Example A580] | 100 to 1000 | 100 to 1000 | 100 to 1000 | 100 to 1000 | 100 to 1000 | 100 to 1000 | 100 to 1000 | 100 to 1000 | 100 to 1000 | 100 to 1000 | 100 to 1000 | 10 to 100 | 100 to 1000 | 100 to 1000 | –
8 | CCn1c(-c2cc(N3CCN(C)CC3)cnc2[C@H](C)OC)c2c3cc(ccc31)-c1csc(n1)C[C@H](NC(=O)[C@H](C(C)C)N(C)C(=O)[C@@H]1OCC[C@@H]1c1ccccc1)C(=O)N1CCC[C@H](N1)C(=O)OCC(C)(C)C2 (atropisomer, axis not shown) [Example A583] | < 10 | < 10 | 10 to 100 | 100 to 1000 | 100 to 1000 | 100 to 1000 | 100 to 1000 | 100 to 1000 | 100 to 1000 | 10 to 100 | 10 to 100 | 100 to 1000 | 10 to 100 | 100 to 1000 | –
9 | CCn1c(-c2cc(N3CCN(C)CC3)cnc2[C@H](C)OC)c2c3cc(ccc31)-c1cc(O)cc(c1)C[C@H](NC(=O)[C@H](C(C)C)N(C)C(=O)[C@@H]1OCC[C@@H]1c1ccccc1)C(=O)N1CCC[C@H](N1)C(=O)OCC(C)(C)C2 (atropisomer, axis not shown) [Example A594] | < 10 | < 10 | < 10 | 10 to 100 | < 10 | 10 to 100 | < 10 | 10 to 100 | < 10 | < 10 | < 10 | 10 to 100 | < 10 | < 10 | –
10 | CCn1c(-c2cccnc2[C@H](C)OC)c2c3cc(ccc31)-c1csc(n1)C[C@H](NC(=O)[C@H](C(C)C)N(C)C(=O)N1CCN(C(=O)[C@H]3CCCN3C)CC1)C(=O)N1CCC[C@H](N1)C(=O)OCC(C)(C)C2 (atropisomer, axis not shown) [Example A595] | 100 to 1000 | 10 to 100 | 10 to 100 | 100 to 1000 | 100 to 1000 | 100 to 1000 | 100 to 1000 | 100 to 1000 | 100 to 1000 | 10 to 100 | 10 to 100 | 10 to 100 | 100 to 1000 | 100 to 1000 | –
11 | CCn1c(-c2cccnc2[C@H](C)OC)c2c3cc(ccc31)-c1csc(n1)C[C@H](NC(=O)[C@H](C(C)C)N(C)C(=O)N1CCC13CCOCC3)C(=O)N1CCC[C@H](N1)C(=O)OCC(C)(C)C2 (atropisomer, axis not shown) [Example A601] | 10 to 100 | 10 to 100 | 10 to 100 | 100 to 1000 | 100 to 1000 | 100 to 1000 | 100 to 1000 | 100 to 1000 | 100 to 1000 | 10 to 100 | 10 to 100 | 10 to 100 | 10 to 100 | 100 to 1000 | –
